Structures can show the parent of a compound that is named as a salt.
Legend:
α7 nAChR = target: T1, α7 nAChR (Homo sapiens, UniProt P36544); test: Inhibition of α7 ACh-evoked responses; type: cell-based; details: for effect on 60 µM ACh response at 1 mM: compound 1 mM co-applied with 60 µM ACh
T1 construct: expressed in transfected cells; host or cells: Xenopus laevis oocytes (injected RNA)
Experimental: Figure 4 Effects sulfonium compounds on α7 ACh-evoked net-charge responses. (A) Effects of the sulfonium compounds at 100 µM co-applied with 60 µM relative to responses to 60 µM ACh applied alone. Data are the averages (±SEM) from seven or eight cells under each condition. (B) Effects of select sulfonium compounds at 1 mM co-applied with 60 µM relative to responses to 60 µM ACh applied alone. Data are the averages (±SEM) from seven or eight cells under each condition. Statistical significance was determined by pairwise t-test with p values corrected for multiple comparisons; * p < 0.05, ** p < 0.001.
The sulfonium compounds that were active with TQS but produced little inhibition of ACh response at a concentration of 100 µM were tested as inhibitors of ACh response at a concentration of 1 mM (Figure 4B).
We tested S8 across a range of concentrations for its ability to inhibit 60 µM ACh responses (Figure 5A). Note that we use 60 µM as an ACh control because this concentration gives nearly maximal (93%) net-charge responses, with the time course of the responses roughly following the speed of solution exchange. […] We tested whether inhibition of α7 responses by S8 was surmountable by increasing ACh concentration, consistent with a competitive mechanism of inhibition. However, since α7 responses to concentrations of ACh greater than 60 µM occur more rapidly than solution exchange in the chamber, we first pre-applied 5 µM S8 prior to the co-application of 5 µM S8 with either 60 µM or 1 mM ACh (Figure 5B). The 60 µM net-charge responses were reduced to 28 ± 2% of controls (n = 8) and 60 µM peak currents to 21 ± 3 % controls. The 1 mM net-charge responses were reduced to 56 ± 6 % of those obtained without S8 co-application, although the S8 co-application increased the peak-current amplitudes compared to 60 µM controls from 1.78 ± 0.15 to 3.72 ± 0.81 (n = 8).
Figure 5 Inhibition of α7 ACh-evoked responses by S8. (A) Concentration-response studies of α7 net-charge responses to 60 µM ACh co-applied with increasing concentrations of S8. To confirm the stability of the ACh responses, applications of ACh plus S8 were alternated with applications of ACh alone. Data are the averages of eight cells (±SEM). See text for curve-fit values. (B) Effects of 5 µM S8 on responses to either 60 µM or 1 mM ACh. The traces shown across the top are the averaged raw data from seven cells, each normalized to the peak current of the first ACh control response shown. In order to assure that the S8 was present at 5 µM throughout the ACh-evoked responses, a 30 s pre-application was made of 5 µM S8 alone. The lower traces show averaged responses to 60 µM or 1 mM ACh alone or with the 5 µM S8 pre- and co-application. The details of the data are described in Methods.
Experiments were conducted using OpusXpress 6000A (Molecular Devices, Union City, CA, USA). Both the voltage and current electrodes were filled with 3 M KCl. Oocytes were voltage-clamped at −60 mV at room temperature (24 °C). The oocytes were bath-perfused with Ringer’s solution (115 mM NaCl, 2.5 mM KCl, 1.8 mM CaCl2, 10 mM HEPES, and 1 μM atropine, pH 7.2) at 2 mL/min for α7 receptors, or 4 mL/min for heteromeric nAChR. To evaluate the effects of experimental compounds, responses were compared to control ACh-evoked responses, defined as the average of two initial applications of ACh made before test applications. ACh control concentrations were 60 µM for α7 receptors; 100 µM for α4(3)β2(2) and α3β4 receptors; 30 µM for α4β2α6β2β3 and muscle-type (αβ1εδ) receptors; and 10 µM for α4(3)β2(2) and α4(2)β2(2)α5 receptors.
Solutions were applied from 96-well plates via disposable tips. Drug applications were 12 s in duration, followed by 181 s washout periods for α7 receptors, or 6 s in duration followed by 301 s washout periods for heteromeric nAChR. […]

[1] = tested on: α4β2 subtypes formed with concatamers; test: Inhibition of ACh control peak-current responses of α4-containing nAChR formed with concatamers; type: cell-based, human; details: 100 µM compound, Figure 7B
Experimental: Although none of the other sulfonium compounds activated neuronal heteromeric receptors, several of them produced inhibition of ACh-evoked responses. Shown in Figure 7A are concentration-response studies for the compounds that were active antagonists of α3β4 nAChR (Table 3). Some compounds were also tested as antagonists of α4β2 subtypes formed with concatamers (Figure 7B).
Figure 7 Inhibition of heteromeric nAChR by sulfonium compounds. (A) Inhibition of α3β4 100 µM ACh-evoked peak currents by the co-application of the sulfonium compounds. Data are the averaged of six to eight oocytes (±SEM). […]
Solutions were applied from 96-well plates via disposable tips. […] The responses were calculated as both peak current amplitudes and net charge, as previously described. Data were collected at 50 Hz, filtered at 20 Hz for α7 receptors or filtered at 5 Hz for heteromeric nAChR, and analyzed by Clampfit (Molecular Devices, San Jose, CA, USA) and Excel (Microsoft, Redmond, WA, USA). Data were expressed as means ± SEM from at least four oocytes for each experiment and plotted with Kaleidagraph 4.5.2 (Abelbeck Software, Reading, PA, USA). Multi-cell averages were calculated for comparisons of complex responses. Averages of the normalized data were calculated for each of the 10,322 points in each of the 206.44 s traces (acquired at 50 Hz), as well as the standard errors for those averages.

T1 sequence (P36544 23-502): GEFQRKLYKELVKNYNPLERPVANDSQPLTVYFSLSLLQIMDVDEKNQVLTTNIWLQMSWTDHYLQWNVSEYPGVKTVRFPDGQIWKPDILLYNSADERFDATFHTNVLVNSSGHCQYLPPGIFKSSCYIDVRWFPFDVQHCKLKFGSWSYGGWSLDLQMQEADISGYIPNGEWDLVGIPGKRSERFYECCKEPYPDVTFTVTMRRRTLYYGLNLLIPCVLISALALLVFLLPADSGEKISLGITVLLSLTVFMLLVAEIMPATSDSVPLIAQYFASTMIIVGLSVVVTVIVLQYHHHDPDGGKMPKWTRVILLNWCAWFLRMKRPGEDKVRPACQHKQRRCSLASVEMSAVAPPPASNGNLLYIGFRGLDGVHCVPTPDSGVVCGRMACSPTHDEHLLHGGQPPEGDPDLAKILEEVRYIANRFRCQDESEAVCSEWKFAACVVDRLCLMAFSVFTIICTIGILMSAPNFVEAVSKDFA

Structure (SMILES) | effect on 60 µM ACh response at 1 mM (α7 nAChR) | inhibition of responses to 60 µM ACh (α7 nAChR; compound co-applied at 100 µM, net charge) | relative antagonist activity [1]
C[S+](C)c1ccc(O)cc1 [Compound S9, (4-hydroxyphenyl)dimethylsulfonium methyl sulfate] | significant inhibition | no inhibition | –
C[S+](C)c1cc([N+](=O)[O-])ccc1O.[Br-] [Compound S10, (2-hydroxy-5-nitrophenyl)dimethylsulfonium bromide] | increased the amplitude of the ACh-evoked responses | – | least

From publication PMC8464850, “Sulfonium Ligands of the α7 nAChR” (Molecules, 2021)
